Measured values reported in patent US20150183737A1, “COMPOSITIONS AND METHODS FOR SUBSTRATE-SELECTIVE INHIBITION OF ENDOCANNABINOID OXYGENATION” (Vanderbilt University, priority 2012, published 2015).
Where two headings read alike, the source gives them in different places. One block for each molecule: values may come before it.

Tests used:
purified murine COX-2 [1] = biological target: T1, purified murine COX-2 (Mus musculus, UniProt Q05769); assay: Inhibition of mCOX-2 dependent oxygenation of 2-AG and AA by profens in vitro; type: biochemical; set-up: made in house; host or cells: insect cells
T1 sequence (Q05769 18-604): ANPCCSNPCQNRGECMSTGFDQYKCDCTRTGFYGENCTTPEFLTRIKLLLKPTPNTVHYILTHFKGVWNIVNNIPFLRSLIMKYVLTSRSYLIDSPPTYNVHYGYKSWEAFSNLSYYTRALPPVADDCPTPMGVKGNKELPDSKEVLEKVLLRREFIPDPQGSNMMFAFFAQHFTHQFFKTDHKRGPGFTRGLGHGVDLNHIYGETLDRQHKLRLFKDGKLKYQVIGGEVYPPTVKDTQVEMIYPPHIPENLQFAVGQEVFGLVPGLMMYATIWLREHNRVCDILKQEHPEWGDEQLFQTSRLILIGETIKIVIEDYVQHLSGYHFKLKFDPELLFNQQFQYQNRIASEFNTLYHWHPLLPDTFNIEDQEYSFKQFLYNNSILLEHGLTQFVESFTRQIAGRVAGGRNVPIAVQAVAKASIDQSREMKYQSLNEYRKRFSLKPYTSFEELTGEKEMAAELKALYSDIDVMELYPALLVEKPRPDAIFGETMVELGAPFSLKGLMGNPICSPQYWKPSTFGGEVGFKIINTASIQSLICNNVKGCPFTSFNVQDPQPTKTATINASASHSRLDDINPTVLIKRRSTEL
Experimental: Desired concentrations of inhibitor in DMSO or blank (DMSO) were incubated with mCOX-2 (40 nM) for 3 minutes in 100 mM Tris-HCl with 0.5 mM phenol, pH 8.0 at 37° C. After pre-incubation of enzyme and inhibitor, 5 μM of AA or 2-AG was added at 37° C. Thirty seconds later, the reaction was quenched with 200 μL of ice-cold ethyl acetate containing 0.5% acetic acid (v/v) and 1 μM PGE2-d4 and PGE2-G-d5. The solution was then vortexed and the aqueous layer frozen. The organic layer was removed and evaporated to near-dryness under nitrogen. The samples were reconstituted in 1:1 MeOH:H2O and chromatographed using a LUNA® C18(2) column (50 2 mm, 3 μm; Phenomenex, Torrance, Calif., United States of America). […] Analyte peak areas were normalized to the appropriate internal standard to determine the amount of product formation, and inhibition was determined by normalization to a DMSO control.

purified murine COX-2 [2] = biological target: T1, purified murine COX-2; assay: Inhibition of mCOX-2-dependent oxygenation of 2-AG and AA by lumiracoxib and derivatives in vitro; type: biochemical; set-up: made in house; host or cells: insect cells; dose or concentration left out as unconfirmed
[3] = tested on: brain eCB, AA and PG levels; assay: Brain eCB, NAE, MAG, AA and PG levels after i.p. injection; type: in vivo, mice; conditions: 40 mg/kg
Experimental: 5-7 week old male ICR mice were used for all experiments with the exception of knockout animals (Harlan, Indianapolis, Ind., United States of America). Mice were housed 5 per […]. All behavioral tests were conducted during the light cycle between 0900 and 1700. KO and WT littermate controls for FAAH^(−/−) and COX-2^(−/−) mice were derived from heterozygote breeding pairs, bred and genotyped as described in Uddin et al., 2011. CB1^(−/−) mice were bred from homozygote breeding pairs and genotyped as described in Pan et al., 2008. Mice were group-housed on a 12:12 light-dark cycle (lights on at 06:00), with food and water available ad libitum. All animal studies were approved by the Vanderbilt Institutional Animal Care and Use Committee and conducted in accordance with the Guide for the Care and Use of Laboratory Animals of the United States National Institutes of Health.
Mice were sacrificed by cervical dislocation and decapitation. The brain, lungs, liver, stomach, small intestines, and kidneys were then rapidly removed and frozen on a metal block in dry ice. The tissue was then placed in a tube and stored at −80° C. until extraction, usually one day after harvesting. For PG and eCB analysis, lipid extraction from tissue was carried out as described in Patel et al., 2009.
Analytes were quantified using LC-MS/MS on a Quantum triple-quadrupole mass spectrometer in positive-ion mode using selected reaction monitoring. Detection of eicosanoids was performed as described in Kingsley & Marnett, 2007. For fatty acid analysis the mobile phases used were 80 μM AgOAc with 0.1% (v/v) acetic acid in H2O (solvent A) and 120 μM AgOAc with 0.1% (v/v) acetic acid in MeOH (solvent B). The analytes were eluted using a gradient from 20% A to 99% B over 5 minutes. The transitions used were m/z 300→282 for PEA, m/z 328→310 for SEA, m/z 434→416 for OEA, m/z 456→438 for AEA, m/z 464→446 for AEA-d8, m/z 331→257 for 2-PG, m/z 359→285 for 2-SG, m/z 463→389 for 2-OG, m/z 485→411 for 2-AG, m/z 493→419 for 2-AG-d8, m/z 519→409 for AA, and m/z 527→417 for AA-d8. Peak areas for the analytes were normalized to the appropriate internal standard and then normalized to tissue mass for in vivo samples.

[4] = chiral profens, at 10 μM inhibitor, AA 5 μM, read-out: % Inhibition AA
[5] = chiral profens, murine COX-2 40 nM, 3 min preincubation, 2-AG 5 μM, mean ± SD, read-out: IC50 (μM) 2-AG
[6] = achiral profens, at 10 μM inhibitor, AA 5 μM, read-out: AA % Inhibition
[7] = achiral profens, murine COX-2 40 nM, 3 min preincubation, 2-AG 5 μM, 37° C., 30 s, mean ± SD, read-out: 2-AG IC50
[8] = read-out: Maximum inhibition of 2-AG oxygenation, achiral profens, at 10 μM inhibitor, 2-AG 5 μM
[9] = 0.5 min, achiral profens, murine COX-2 40 nM, 3 min preincubation, 2-AG 5 μM, 37° C., 30 s, mean ± SD, read-out: 2-AG IC50
[10] = 15 min incubation, read-out: Maximum inhibition of AA oxygenation (converted)
[11] = inhibitor incubated with enzyme for 15 min before addition of substrate, read-out: AA IC50

inhibition at 10 µM (purified murine COX-2 [1]; [4]): 20%
IC50 (purified murine COX-2 [1]; [5]): 0.9 µM
SMILES: CC(C(=O)O)c1cccc(Oc2ccccc2)c1 (racemic) [Compound 6d, fenoprofen, reference compound]

SMILES: CC(C(=O)O)c1cccc(C(=O)c2ccccc2)c1 (racemic) [Compound 6e, ketoprofen, reference compound]
IC50 (purified murine COX-2 [1]; [5]): 0.3 µM
inhibition at 10 µM (purified murine COX-2 [1]; read-out: % Inhibition AA): 50%

SMILES: C[C@H](C(=O)O)c1cccc(Oc2ccccc2)c1 [(S)-fenoprofen, reference compound]
% Inhibition AA (purified murine COX-2 [1]; chiral profens, at 10 μM inhibitor, AA 5 μM): 30%
IC50 (purified murine COX-2 [1]; [5]): 0.9 µM

SMILES: C[C@H](C(=O)O)c1cccc(C(=O)c2ccccc2)c1 [(S)-ketoprofen, reference compound]
IC50 (purified murine COX-2 [1]; [5]): 0.2 µM
inhibition at 10 µM (purified murine COX-2 [1]; read-out: % Inhibition AA): 55%

inhibition at 10 µM (purified murine COX-2 [1]; [6]): 16%
IC50 (purified murine COX-2 [1]; [7]): 1.4 µM
SMILES: COc1ccc2cc(CC(=O)O)ccc2c1 [Compound 3b, 2-(6-methoxynaphthalen-2-yl)acetic acid]

inhibition at 10 µM (purified murine COX-2 [1]; [6]): 14%
IC50 (purified murine COX-2 [1]; [7]): 5.5 µM
SMILES: CC(C)Cc1ccc(CC(=O)O)cc1 [Compound 3c, 2-(4-isobutylphenyl)acetic acid]

inhibition at 10 µM (purified murine COX-2 [1]; [6]): 24%
IC50 (purified murine COX-2 [1]; [7]): 6.1 µM
inhibition at 10 µM (purified murine COX-2 [1]; [8]): 68%
SMILES: O=C(O)Cc1cccc(Oc2ccccc2)c1 [Compound 3d, 2-(3-phenoxyphenyl)acetic acid]

inhibition at 10 µM (purified murine COX-2 [1]; [6]): 10%
IC50 (purified murine COX-2 [1]; [7]): 0.5 µM
SMILES: O=C(O)Cc1cccc(C(=O)c2ccccc2)c1 [Compound 3e, Desmethylketoprofen]

inhibition at 10 µM (purified murine COX-2 [1]; [9]): < 50%
inhibition at 10 µM (purified murine COX-2 [1]; [6]): 7%
inhibition at 10 µM (purified murine COX-2 [1]; [8]): 12%
SMILES: COc1ccc2cc(C(C)(C)C(=O)O)ccc2c1 [Compound 4b, 2-(6-methoxynaphthalen-2-yl)-2-methylpropanoic acid]

inhibition at 10 µM (purified murine COX-2 [1]; [9]): < 50%
inhibition at 10 µM (purified murine COX-2 [1]; [6]): 5%
inhibition at 10 µM (purified murine COX-2 [1]; [8]): 5%
SMILES: CC(C)Cc1ccc(C(C)(C)C(=O)O)cc1 [Compound 4c, 2-(4-isobutylphenyl)-2-methylpropanoic acid]

inhibition at 10 µM (purified murine COX-2 [1]; [6]): 17%
IC50 (purified murine COX-2 [1]; [7]): 7.3 µM
inhibition at 10 µM (purified murine COX-2 [1]; [8]): 65%
SMILES: CC(C)(C(=O)O)c1cccc(Oc2ccccc2)c1 [Compound 4d, 2-methyl-2-(3-phenoxyphenyl)propanoic acid]

inhibition at 10 µM (purified murine COX-2 [1]; [6]): 32%
IC50 (purified murine COX-2 [1]; [7]): 3 µM
SMILES: CC(C)(C(=O)O)c1cccc(C(=O)c2ccccc2)c1 [Compound 4e, 2-(3-benzoylphenyl)-2-methylpropanoic acid]

inhibition at 10 µM (purified murine COX-2 [1]; [6]): 6%
IC50 (purified murine COX-2 [1]; [7]): 3.4 µM
inhibition at 10 µM (purified murine COX-2 [1]; [8]): 77%
SMILES: COc1ccc2cc(C3(C(=O)O)CC3)ccc2c1 [Compound 5b, 1-(6-methoxynaphthalen-2-yl)cyclopropanecarboxylic acid]

inhibition at 10 µM (purified murine COX-2 [1]; [9]): < 50%
inhibition at 10 µM (purified murine COX-2 [1]; [6]): 10%
inhibition at 10 µM (purified murine COX-2 [1]; [8]): 45%
SMILES: CC(C)Cc1ccc(C2(C(=O)O)CC2)cc1 [Compound 5c, 1-(4-isobutylphenyl)cyclopropanecarboxylic acid]

inhibition at 10 µM (purified murine COX-2 [1]; [6]): 15%
IC50 (purified murine COX-2 [1]; [7]): 5 µM
SMILES: O=C(O)C1(c2cccc(Oc3ccccc3)c2)CC1 [Compound 5d, 1-(3-phenoxyphenol)cyclopropanecarboxylic acid]

inhibition at 10 µM (purified murine COX-2 [1]; [6]): 10%
IC50 (purified murine COX-2 [1]; [7]): 4.1 µM
inhibition at 10 µM (purified murine COX-2 [1]; [8]): 75%
SMILES: O=C(c1ccccc1)c1cccc(C2(C(=O)O)CC2)c1 [Compound 5e, 1-(3-benzoylphenyl)cyclopropanecarboxylic acid]

SMILES: C[C@@H](C(=O)O)c1cccc(Oc2ccccc2)c1 [Compound 7d, (R)-Fenoprofen]
inhibition at 10 µM (purified murine COX-2 [1]; [4]): 10%
inhibition at 10 µM (purified murine COX-2 [1]; read-out: IC50 (μM) 2-AG): < 50%
inhibition at 10 µM (purified murine COX-2 [1]; read-out: Maximum inhibition of 2-AG oxygenation, chiral profens, at 10 μM inhibitor, 2-AG 5 μM): 25%

SMILES: C[C@@H](C(=O)O)c1cccc(C(=O)c2ccccc2)c1 [Compound 7e, (R)-ketoprofen]
IC50 (purified murine COX-2 [1]; [5]): 7.3 µM
inhibition at 10 µM (purified murine COX-2 [1]; read-out: % Inhibition AA): 20%
inhibition at 10 µM (purified murine COX-2 [1]; read-out: Maximum inhibition of 2-AG oxygenation): 56%

SMILES: Cc1ccc(Nc2c(F)cccc2Cl)c(CC(=O)O)c1 [Compound 101]
inhibition (purified murine COX-2 [2]; read-out: AA IC50 (mM)): < 50%

inhibition (purified murine COX-2 [2]; [10]): 0%
inhibition (purified murine COX-2 [2]; [11]): < 50%
SMILES: Cc1ccc(Nc2ccccc2Cl)c(CC(=O)O)c1 [Compound 102]

inhibition (purified murine COX-2 [2]; [10]): 0%
inhibition (purified murine COX-2 [2]; [11]): < 50%
SMILES: Cc1ccc(Nc2ccccc2F)c(CC(=O)O)c1 [Compound 103]

inhibition (purified murine COX-2 [2]; [10]): 10%
inhibition (purified murine COX-2 [2]; [11]): < 50%
SMILES: Cc1ccc(Nc2ccccc2)c(CC(=O)O)c1 [Compound 104]

inhibition (purified murine COX-2 [2]; [10]): 60%
SMILES: Cc1ccc(Nc2c(Cl)cccc2Cl)c(CC(=O)O)c1 [Compound 105]

inhibition (purified murine COX-2 [2]; [10]): 0%
inhibition (purified murine COX-2 [2]; [11]): < 50%
SMILES: Cc1ccc(Nc2c(F)cccc2F)c(CC(=O)O)c1 [Compound 106]

inhibition (purified murine COX-2 [2]; [11]): < 50%
SMILES: Cc1ccc(Nc2c(C)cccc2F)c(CC(=O)O)c1 [Compound 107]

inhibition (purified murine COX-2 [2]; [10]): 32%
inhibition (purified murine COX-2 [2]; [11]): < 50%
SMILES: Cc1ccc(Nc2c(Cl)cc(Cl)cc2Cl)c(CC(=O)O)c1 [Compound 108]

SMILES: O=C(O)Cc1ccccc1Nc1c(F)cccc1Cl [Compound 109]
inhibition (purified murine COX-2 [2]; read-out: AA IC50 (mM)): < 50%

SMILES: O=C(O)Cc1ccccc1Nc1ccccc1Cl [Compound 110]
inhibition (purified murine COX-2 [2]; read-out: AA IC50 (mM)): < 50%

inhibition (purified murine COX-2 [2]; [10]): 0%
inhibition (purified murine COX-2 [2]; [11]): < 50%
SMILES: O=C(O)Cc1ccccc1Nc1ccccc1F [Compound 111]

SMILES: O=C(O)Cc1ccccc1Nc1ccccc1 [Compound 112]
inhibition (purified murine COX-2 [2]; read-out: AA IC50 (mM)): < 50%

SMILES: O=C(O)Cc1ccccc1Nc1c(F)cccc1F [Compound 114]
inhibition (purified murine COX-2 [2]; read-out: AA IC50 (mM)): < 50%

inhibition (purified murine COX-2 [2]; [10]): 0%
inhibition (purified murine COX-2 [2]; [11]): < 50%
SMILES: Cc1cccc(F)c1Nc1ccccc1CC(=O)O [Compound 115]

inhibition (purified murine COX-2 [2]; [10]): 55%
SMILES: O=C(O)Cc1ccccc1Nc1c(Cl)cc(Br)cc1Cl [Compound 116]

SMILES: O=C(Oc1ccc([N+](=O)[O-])cc1)N1CCC(C(O)(c2ccc3c(c2)OCO3)c2ccc3c(c2)OCO3)CC1 [JZL-184, reference compound]
Brain levels of 2-AG and 3 other MAG species [3]: increased
